Results on 23 compounds are retold here after US9840478B2 (MERCK SHARP & DOHME CORP., priority 2013, dated 2017).

The first experiment has as its system HIV-1 (H9IIIB strain). Nature of the experiment: Cell-based HIV infection assay using a reporter (Cell-Based), MT4-GFP cells. The note with it: Human immunodeficiency virus 1, MT4-GFP cells infected with HIV-1 H9IIIB; 50% normal human serum; mean of at least two independent experiments; read-out: Cell-based IP. Put shortly: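 IC50 from 4-parameter dose-response of % viral growth inhibition, using the 48 h/24 h infected-cell ratio scaled between DMSO and a protease/integrase/NNRTI triple-drug control. Assay used MT4 cells with HIV-LTR-GFP reporter, pre-infected 24 h with HIV-1 H9IIIB, in 50% normal human serum.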
Take `CC[C@H]1CNC[C@H](CCc2c(F)cccc2NC(=O)[C@@H](NC(=O)OC)[C@@H](c2ccc(Cl)cc2)C2CCOCC2)N1S(C)(=O)=O` [Example 225, (βR)-4-chloro-N-(2-{2-[(2S,6S)-6-ethyl-1-(methylsulfonyl)piperazin-2-yl]ethyl}-3-fluorophenyl)-Nα-(methoxycarbonyl)-β-(tetrahydro-2H-pyran-4-yl)-L-phenylalaninamide]: the IC50 is 23 nM. Still for that read-out and setting: the result for `C[C@@H]1CNC[C@H](CCc2c(F)cccc2NC(=O)[C@@H](N)[C@@H](c2ccc(F)c(F)c2)C2CCOCC2)N1S(=O)(=O)c1ccccc1` [Example 288, (βR)-3,4-difluoro-N-(3-fluoro-2-{2-[(2S,6R)-6-methyl-1-(phenylsulfonyl)piperazin-2-yl]ethyl}phenyl)-β-(tetrahydro-2H-pyran-4-yl)-L-phenylalaninamide] reads 23 nM. Same read-out and setting: the result for `O=C(C[C@@H](c1ccc(F)cc1)c1cc(F)cc(F)c1)Nc1cncc(F)c1CC[C@H]1CNCCN1S(=O)(=O)N1CCCC1` [Example 323, (3S)-3-(3,5-difluorophenyl)-3-(4-fluorophenyl)-N-(5-fluoro-4-{2-[(2S)-1-(pyrrolidin-1-ylsulfonyl)piperazin-2-yl]ethyl}pyridin-3-yl)propanamide] reads 4.8 nM; that for `COC(=O)N[C@H](C(=O)Nc1cncc(F)c1CC[C@H]1CNCCN1S(=O)(=O)c1ccccc1)C(c1cccc(F)c1)c1cccc(F)c1` [Example 54, 3-fluoro-β-(3-fluorophenyl)-N-(5-fluoro-4-{2-[(2S)-1-(phenylsulfonyl)piperazin-2-yl]ethyl}pyridin-3-yl)-Nα-(methoxycarbonyl)-L-phenylalaninamide], 9.8 nM; that for `O=C(N[C@H](C(=O)Nc1cncc(F)c1CC[C@H]1CNCCN1S(=O)(=O)C1CC1)[C@@H](c1ccc(F)cc1)c1cc(F)cc(F)c1)C1CC1` [Example 81], 25 nM. Same read-out and setting: the result for `C[C@H]1CNC[C@H](CCc2c(F)cccc2NC(=O)[C@@H](N)C(c2cccc(F)c2)c2cccc(F)c2)N1S(=O)(=O)C1CC1` [Example 158, N-(2-{2-[(2S,6S)-1-(cyclopropylsulfonyl)-6-methylpiperazin-2-yl]ethyl}-3-fluorophenyl)-3-fluoro-β-(3-fluorophenyl)-L-phenylalaninamide] reads 75 nM; that for `Cc1ccc(S(=O)(=O)N2CCNC[C@@H]2CCc2c(F)cccc2NC(=O)[C@@H](N)[C@@H](c2ccc(F)cc2)c2cc(F)cc(F)c2)o1` [Example 373, (2S,3S)-2-amino-3-(3,5-difluorophenyl)-N-(3-fluoro-2-(2-((S)-1-((5-methylfuran-2-yl)sulfonyl)piperazin-2-yl)ethyl)phenyl)-3-(4-fluorophenyl)propanamide], 4.2 nM; that for `N[C@H](C(=O)Nc1cccc(F)c1CC[C@H]1CNCCN1S(=O)(=O)c1ccccc1)[C@@H](c1ccc(Cl)cc1)c1cc(F)cc(F)c1` [Example 43, (βS)-4-chloro-β-(3,5-difluorophenyl)-N-(3-fluoro-2-{2-[(2S)-1-(phenylsulfonyl)piperazin-2-yl]ethyl}phenyl)-L-phenylalaninamide], 12 nM. Take `N[C@H](C(=O)NC1CC(F)(F)CC1CC[C@H]1CNCCN1S(=O)(=O)c1ccccc1)[C@H](c1ccc(Cl)cc1)C1CCOCC1` (stereo partly drawn) [Example 360, (betaS)-4-chloro-N-(4,4-difluoro-2-{2-[(2S)-1-(phenylsulfonyl)piperazin-2-yl]ethyl}cyclopentyl)-beta-(tetrahydro-2H-pyran-4-yl)-L-phenylalaninamide]: the IC50 came out at 610 nM.

In the case of `C[C@H]1CNC[C@H](CCc2c(F)cncc2NC(=O)[C@@H](N)[C@@H](c2ccc(F)cc2)c2cc(F)cc(F)c2)N1S(=O)(=O)c1ccc(OC(F)(F)F)cc1` [Example 243, (βS)-β-(3,5-difluorophenyl)-4-fluoro-N-(5-fluoro-4-{2-[(2S,6S)-6-methyl-1-{[4-(trifluoromethoxy)phenyl]sulfonyl}piperazin-2-yl]ethyl}pyridin-3-yl)-L-phenylalaninamide], the IC50 was found to be 17 nM. Same read-out and setting: then `C[C@H]1CNC[C@H](CCc2c(F)cccc2NC(=O)[C@@H](N)[C@@H](c2ccc(Cl)cc2)c2cccc(F)c2)N1S(C)(=O)=O` [Example 108, (βS)-4-chloro-N-(3-fluoro-2-{2-[(2S,6S)-6-methyl-1-(methylsulfonyl)piperazin-2-yl]ethyl}phenyl)-β-(3-fluorophenyl)-L-phenylalaninamide], with 32 nM. Same read-out and setting: the result for `C[C@@H]1C[C@H]([C@H](c2ccc(F)cc2)[C@H](N)C(=O)Nc2cccc(F)c2CC[C@H]2CNC[C@@H](C)N2S(=O)(=O)c2ccccc2)C[C@H](C)O1` [Example 370, (2S,3R)-2-amino-3-((2R,4r,6S)-2,6-dimethyltetrahydro-2H-pyran-4-yl)-N-(3-fluoro-2-(2-((2S,6R)-6-methyl-1-(phenylsulfonyl)piperazin-2-yl)ethyl)phenyl)-3-(4-fluorophenyl)propanamide] reads 7.5 nM. Still for that read-out and setting: the result for `C[C@H]1CNC[C@H](CCc2c(F)cccc2NC(=O)[C@@H](N)[C@@H](c2ccc(F)c(F)c2)C2CCOCC2)N1S(=O)(=O)c1ccccc1` [Example 289, (βR)-3,4-difluoro-N-(3-fluoro-2-{2-[(2S,6S)-6-methyl-1-(phenylsulfonyl)piperazin-2-yl]ethyl}phenyl)-β-(tetrahydro-2H-pyran-4-yl)-L-phenylalaninamide] reads 23 nM; that for `C[C@H]1CNC[C@@H](CCc2c(F)cccc2NC(=O)CC(c2ccc(F)cc2)c2ccc(F)cc2)N1S(=O)(=O)c1ccccc1` [Example 93, N-(3-fluoro-2-{2-[(2R,6S)-6-methyl-1-(phenylsulfonyl)piperazin-2-yl]ethyl}phenyl)-3,3-bis(4-fluorophenyl) propanamide], 120 nM. As to `N[C@H](C(=O)Nc1cccc(F)c1CC[C@H]1CNCC2(CC2)N1C(=O)COc1ccccc1)C(c1ccc(F)cc1)c1ccc(F)cc1` [Example 368, (S)-2-amino-N-(3-fluoro-2-(2-((S)-4-(2-phenoxyacetyl)-4,7-diazaspiro[2.5]octan-5-yl)ethyl)phenyl)-3,3-bis(4-fluorophenyl)propanamide], the IC50 was found to be 1500 nM.

Turning to `CC1(C)CC([C@H](c2ccc(Cl)cc2)[C@H](N)C(=O)Nc2cccc(F)c2CC[C@H]2CNCCN2S(=O)(=O)c2ccccc2)CC(C)(C)O1` [Example 75, (βR)-4-chloro-N-(3-fluoro-2-{2-[(2S)-1-(phenylsulfonyl)piperazin-2-yl]ethyl}phenyl)-β-(2,2,6,6-tetramethyltetrahydro-2H-pyran-4-yl)-L-phenylalaninamide], the IC50 was found to be 150 nM.

For the compound `COC(=O)N[C@H](C(=O)Nc1cccc(F)c1CC[C@H]1CNC[C@@H](C)N1S(=O)(=O)C1CC1)[C@@H](c1cccc(Cl)c1)C(C)C` [Example 217, (βR)-3-chloro-N-(2-{2-[(2S,6R)-1-(cyclopropylsulfonyl)-6-methylpiperazin-2-yl]ethyl}-3-fluorophenyl)-Nα-(methoxycarbonyl)-β-(1-methylethyl)-L-phenylalaninamide], the IC50 worked out at 1800 nM. On the same count and under the same terms, then `COC(=O)N[C@H](C(=O)Nc1cccc(F)c1CC[C@H]1CNC[C@@H](C)N1S(=O)(=O)c1ccccc1Cl)[C@@H](c1ccc(F)cc1)c1cc(F)cc(F)c1` [Example 232, (βS)-N-[2-(2-{(2S,6R)-1-[(2-chlorophenyl)sulfonyl]-6-methylpiperazin-2-yl}ethyl)-3-fluorophenyl]-β-(3,5-difluorophenyl)-4-fluoro-Nα-(methoxycarbonyl)-L-phenylalaninamide], with 190 nM; and `Nc1ccc(S(=O)(=O)N2CCNC[C@@H]2CCc2c(F)cncc2NC(=O)[C@@H](N)[C@@H](c2ccc(F)cc2)c2cc(F)cc(F)c2)cn1` [Example 29, (βS)-N-[4-(2-{(2S)-1[(6-aminopyridin-3-yl)sulfonyl]piperazin-2-yl}ethyl)-5-fluoropyridin-3-yl]-3,5-difluoro-β-(4-fluorophenyl)-L-phenylalaninamide], with 520 nM. On the same count and under the same terms, then `COC(=O)N[C@H](C(=O)Nc1cccc(F)c1CC[C@H]1CNC[C@H](C)N1S(=O)(=O)c1ccccc1)C1(c2ccc(Cl)cc2)CCOCC1` [Example 276, methyl {(1S)-1-[4-(4-chlorophenyl)tetrahydro-2H-pyran-4-yl]-2-[(3-fluoro-2-{2-[(2S,6S)-6-methyl-1-(phenylsulfonyl)piperazin-2-yl]ethyl}phenyl)amino]-2-oxoethyl}carbamate], with 9.1 nM; and `O=C(C[C@@H](c1ccc(F)cc1)c1cc(F)cc(F)c1)Nc1cncc(F)c1CC[C@H]1CNCCN1C(=O)c1ccc2c(c1)OC(F)(F)O2` [Example 345, (3S)-N-[4-(2-{(2S)-1-[(2,2-difluoro-1,3-benzodioxol-5-yl)carbonyl]piperazin-2-yl}ethyl)-5-fluoropyridin-3-yl]-3-(3,5-difluorophenyl)-3-(4-fluorophenyl)propanamide], with 1600 nM.

The same experiment, now with this note: MT4-GFP cells infected with HIV-1 H9IIIB; 50% normal human serum; mean of at least two independent experiments; read-out: Cell-based IP.
Take `N[C@H](C(=O)NC1CC(F)(F)CC1CC[C@H]1CNCCN1S(=O)(=O)c1ccccc1)[C@H](c1ccc(Cl)cc1)C1CCOCC1` (stereo partly drawn) [Example 361, (betaS)-4-hcloro-N-(4,4-difluoro-2-{2-[(2S)-1-(phenylsulfonyl)piperazin-2-yl]ethyl}cyclopentyl)-beta-(tetrahydro-2H-pyran-4-yl)-L-phenylalaninamide]: the IC50 is 880 nM. Same read-out and setting: the result for `CC(C)OCC1CNC[C@H](CCc2c(F)cccc2NC(=O)[C@@H](N)[C@@H](c2ccc(F)cc2)c2cc(F)cc(F)c2)N1S(=O)(=O)C1CC1` (stereo partly drawn) [Example 228, (βS)-N-[2-(2-{(2S)-1-(cyclopropylsulfonyl)-6-[(1-methylethoxy)methyl]piperazin-2-yl}ethyl)-3-fluorophenyl]-β-(3,5-difluorophenyl)-4-fluoro-L-phenylalaninamide] reads 15 nM.
